Experimental data published in publication PMC5718994, “Synthesis and analytical characterization of new thiazol-2-(3H)-ones as human neutrophil elastase (HNE) inhibitors” (Chemistry Central Journal, 2017).

System: HNE
Assay: not given
Conditions: HNE inhibitor, Fig. 1; cited from earlier work

SMILES | IC50
Cc1c(-c2ccnn2C)cc(C(=O)NCc2ccc(S(C)(=O)=O)cn2)c(=O)n1-c1cccc(C(F)(F)F)c1 [Alvelestat] | 12 nM

System: not given
Assay: not given
Conditions: not given

melting point | SMILES
177 to 179 °C | O=C(Cn1c(-c2ccccc2)csc1=O)Nc1ccccc1 [Compound 2a, 2-(2-Oxo-4-phenylthiazol-3(2H)-yl)-N-phenylacetamide]
121 to 123 °C | CC(=O)c1sc(=O)n(COC(=O)c2ccccc2)c1C [Compound 5b, (5-Acetyl-4-methyl-2-oxothiazol-3(2H)-yl)methyl benzoate]
209 to 211 °C | CC(=O)c1sc(=O)n(CC(=O)Nc2c(Cl)cccc2Cl)c1C [Compound 2d, 2-(5-Acetyl-4-methyl-2-oxothiazol-3(2H)-yl)-N-(2,6-dichlorophenyl)acetamide]
147 to 150 °C | CC(=O)c1sc(=O)n(-c2cccc(C(F)(F)F)c2)c1C [Compound 3d, 5-Acetyl-4-methyl-3-[3-(trifluoromethyl)phenyl]thiazol-2(3H)-one]
188 to 190 °C | CC(=O)c1sc(=O)n(CC(=O)Nc2ccccc2)c1C [Compound 2c, 2-(5-Acetyl-4-methyl-2-oxothiazol-3(2H)-yl)-N-phenylacetamide]
104 to 106 °C | CC(=O)c1sc(=O)n(-c2cccc(C)c2)c1C [Compound 3c, 5-Acetyl-4-methyl-3-m-tolylthiazol-2(3H)-one]
266 to 269 °C | Cc1csc(=O)n1CC(=O)Nc1c(Cl)cccc1Cl [Compound 2f, N-(2,6-dichlorophenyl)-2-(4-methyl-2-oxothiazol-3(2H)-yl)acetamide]
69 to 72 °C | Cc1cccc(-n2c(C)csc2=O)c1 [Compound 3e, 4-Methyl-3-m-tolyl-thiazol-2(3H)-one]
188 to 191 °C | Cc1csc(=O)n1CC(=O)Nc1ccccc1 [Compound 2e, 2-(4-Methyl-2-oxothiazol-3(2H)-yl)-N-phenylacetamide]
84 to 87 °C | O=c1scc(-c2ccccc2)n1-c1cccc(C(F)(F)F)c1 [Compound 3b, 4-Phenyl-3-[3-(trifluoromethyl)phenyl]thiazol-2(3H)-one]
213 to 216 °C | O=C(Cn1c(-c2ccccc2)csc1=O)Nc1c(Cl)cccc1Cl [Compound 2b, N-(2,6-dichlorophenyl)-2-(2-oxo-4-phenylthiazol-3(2H)-yl)acetamide]
118 to 121 °C | Cc1cccc(-n2c(-c3ccccc3)csc2=O)c1 [Compound 3a, 4-Phenyl-3-m-tolyl-thiazol-2(3H)-one]

Target: T1, HNE (Calbiochem) (Homo sapiens, UniProt P08246)
T1 construct: purchased Calbiochem
T1 sequence (P08246 30-267): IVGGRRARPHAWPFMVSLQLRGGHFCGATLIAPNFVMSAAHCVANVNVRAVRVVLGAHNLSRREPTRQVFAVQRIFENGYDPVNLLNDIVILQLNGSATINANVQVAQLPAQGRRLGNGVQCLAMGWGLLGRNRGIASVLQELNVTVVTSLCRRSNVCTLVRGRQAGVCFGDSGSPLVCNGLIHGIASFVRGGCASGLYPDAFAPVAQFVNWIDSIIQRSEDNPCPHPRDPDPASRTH
Assay: HNE inhibition assay
Assay type: biochemical
Conditions: highest concentration tested 40 µM
Experimental: Compounds were dissolved in 100% DMSO at 5 mM stock concentrations. The final concentration of DMSO in the reactions was 1%, and this level of DMSO had no effect on enzyme activity. The HNE inhibition assay was performed in black flat-bottom 96-well microtiter plates. Briefly, a buffer solution containing 200 mM Tris–HCl, pH 7.5, 0.01% bovine serum albumin, and 0.05% Tween-20 and 20 mU/mL of HNE (Calbiochem) was added to wells containing different concentrations of each compound. The reaction was initiated by addition of 25 μM elastase substrate (N-methylsuccinyl-Ala–Ala-Pro-Val-7-amino-methyl-coumarin, Calbiochem) in a final reaction volume of 100 μL/well. Kinetic measurements were obtained every 30 s for 10 min at 25 °C using a Fluoroskan Ascent FL fluorescence microplate reader (Thermo Electron, MA) with excitation and emission wavelengths at 355 and 460 nm, respectively.

HNE inhibitory activity | SMILES
inactive | Cc1cccc(COc2nc(-c3ccccc3)cs2)c1 [Compound 6c, 2-(3-Methylbenzyloxy)-4-phenylthiazole]
inactivity | CC(=O)c1sc(=O)n(COC(=O)c2ccccc2)c1C [Compound 5b, (5-Acetyl-4-methyl-2-oxothiazol-3(2H)-yl)methyl benzoate]
inactivity | O=C(OCOc1nc(-c2ccccc2)cs1)c1ccccc1 [Compound 6a, (4-Phenylthiazol-2-yloxy)methyl benzoate]
inactivity | CC(=O)c1sc(OCOC(=O)c2ccccc2)nc1C [Compound 6b, (5-Acetyl-4-methylthiazol-2-yloxy)methyl benzoate]
inactive | Cc1cccc(Cn2c(-c3ccccc3)csc2=O)c1 [Compound 5c, 3-(3-Methylbenzyl)-4-phenylthiazol-2(3H)-one]
inactivity | O=C(OCn1c(-c2ccccc2)csc1=O)c1ccccc1 [Compound 5a, (2-Oxo-4-phenylthiazol-3(2H)-yl)methyl benzoate]
